From publication PMC11425660, “[^186Re]Re- and [^99mTc]Tc-Tricarbonyl Metal Complexes with 1,4,7-Triazacyclononane-Based Chelators Bearing Amide, Alcohol, or Ketone Pendent Groups” (ACS Omega, 2024) come the findings set out here.

Series [1] in a line: solubility in solvents (observation). The note with it: solvents as named in the value. It is filed as physicochemical.
The nature of series [2]: storage stability (observation). Format: physicochemical.

For the molecule `O=C(O)CN1CCN(CC(=O)O)CCN(CC(=O)NCc2ccccc2)CC1` [Chelator 5, 2,2′-(7-(2-(Benzylamino)-2-oxoethyl)-1,4,7-triazonane-1,4-diyl)diacetic Acid], the solubility result in series [1] was “soluble in water, methanol, acetonitrile, and dimethyl sulfoxide”. Moreover, the storage stability entry in series [2] (room temperature) is given as “stable at room temperature for several months”.

Turning to `CC(=O)CN1CCN(CC(C)=O)CCN(CC(=O)NCc2ccccc2)CC1` [Chelator 4, N-Benzyl-2-(4,7-bis(2-oxopropyl)-1,4,7-triazonan-1-yl)acetamide], the solubility result in series [1] is “soluble in dimethyl sulfoxide”. For the same molecule, the storage stability entry in series [2] (stored at 4 °C) is “stable at 4 °C for several weeks”.

Turning to `NC(=O)CN1CCN(CC(N)=O)CCN(CC(=O)NCc2ccccc2)CC1` [Chelator 2, 2,2′-(7-(2-(Benzylamino)-2-oxoethyl)-1,4,7-triazonane-1,4-diyl)diacetamide], the solubility entry in series [1] was “soluble in water, methanol, acetonitrile, and dimethyl sulfoxide”. Moreover, the storage stability entry in series [2] (stored at 4 °C) was “stable when stored at 4 °C for several weeks”.

Regarding `O=C(CN1CCN(CCO)CCN(CCO)CC1)NCc1ccccc1` [Chelator 3, N-Benzyl-2-(4,7-bis(2-hydroxyethyl)-1,4,7,-triazonan-1-yl)acetamide], the solubility result in series [1] was “soluble in water, methanol, acetonitrile, and dimethyl sulfoxide”. Moreover, the storage stability result in series [2] (stored at 4 °C) is “stable when stored at 4 °C for several weeks”.
